Here are results for 3 molecules from patent US7214690B2, “Tricyclic quinolinone and tricyclic quinoline androgen receptor modulator compounds and methods” (Ligand Pharmaceuticals Incorporated, priority 2001, dated 2007).

The target of experiment [1] is T1, GR (Homo sapiens, UniProt P04150).
T1 construct: expressed in transfected cells; host or cells: background cell substantially devoid of endogenous IRs (CV-1 described for the co-transfection assay)
T1 sequence (P04150 1-777): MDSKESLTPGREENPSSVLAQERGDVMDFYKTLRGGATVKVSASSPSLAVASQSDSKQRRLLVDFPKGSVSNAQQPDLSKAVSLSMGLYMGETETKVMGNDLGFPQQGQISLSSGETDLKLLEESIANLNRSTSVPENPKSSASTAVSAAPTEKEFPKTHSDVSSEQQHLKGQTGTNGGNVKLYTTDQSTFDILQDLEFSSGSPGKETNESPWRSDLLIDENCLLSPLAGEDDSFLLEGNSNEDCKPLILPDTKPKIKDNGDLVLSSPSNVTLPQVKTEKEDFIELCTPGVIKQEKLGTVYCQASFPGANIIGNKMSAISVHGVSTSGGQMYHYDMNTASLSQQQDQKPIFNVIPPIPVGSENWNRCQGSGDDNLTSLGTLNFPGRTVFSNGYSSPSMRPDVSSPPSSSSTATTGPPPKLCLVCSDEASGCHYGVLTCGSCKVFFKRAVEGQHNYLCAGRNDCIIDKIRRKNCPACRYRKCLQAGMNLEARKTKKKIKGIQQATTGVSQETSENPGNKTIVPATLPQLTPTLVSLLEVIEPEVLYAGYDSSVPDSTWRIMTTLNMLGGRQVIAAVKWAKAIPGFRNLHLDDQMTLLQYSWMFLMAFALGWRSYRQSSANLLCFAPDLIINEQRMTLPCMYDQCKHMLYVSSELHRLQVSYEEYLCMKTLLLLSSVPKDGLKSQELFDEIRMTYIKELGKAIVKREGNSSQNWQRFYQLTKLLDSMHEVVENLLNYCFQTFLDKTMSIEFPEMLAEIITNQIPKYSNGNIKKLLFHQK
As to the kind of experiment: co-transfection assay, GR. The format is cell-based. As for the experimental part:
(§1) CV-1 cells (African green monkey kidney fibroblasts) were cultured in the presence of Dulbecco's Modified Eagle Medium (DMEM) supplemented with 10% charcoal resin-stripped fetal bovine serum (CH-FBS) then transferred to 96-well microtiter plates one day prior to transfection.
(§2) Three to four replicates were used for each sample.
(§3) After 40 hours, the cells were washed with PBS, lysed with a Triton X-100-based buffer and assayed for LUC and β-Gal activities using a luminometer or spectrophotometer, respectively. For each replicate, the normalized response (NR) was calculated as: LUC response/β-Gal rate • where β-Gal rate=β-Gal/β-Gal incubation time.

Experiment [2] concerns the target T2, human AR (Homo sapiens, UniProt P10275).
T2 construct: expressed in transfected cells; host or cells: CV-1 cells (African green monkey kidney fibroblasts)
T2 sequence (P10275 1-920): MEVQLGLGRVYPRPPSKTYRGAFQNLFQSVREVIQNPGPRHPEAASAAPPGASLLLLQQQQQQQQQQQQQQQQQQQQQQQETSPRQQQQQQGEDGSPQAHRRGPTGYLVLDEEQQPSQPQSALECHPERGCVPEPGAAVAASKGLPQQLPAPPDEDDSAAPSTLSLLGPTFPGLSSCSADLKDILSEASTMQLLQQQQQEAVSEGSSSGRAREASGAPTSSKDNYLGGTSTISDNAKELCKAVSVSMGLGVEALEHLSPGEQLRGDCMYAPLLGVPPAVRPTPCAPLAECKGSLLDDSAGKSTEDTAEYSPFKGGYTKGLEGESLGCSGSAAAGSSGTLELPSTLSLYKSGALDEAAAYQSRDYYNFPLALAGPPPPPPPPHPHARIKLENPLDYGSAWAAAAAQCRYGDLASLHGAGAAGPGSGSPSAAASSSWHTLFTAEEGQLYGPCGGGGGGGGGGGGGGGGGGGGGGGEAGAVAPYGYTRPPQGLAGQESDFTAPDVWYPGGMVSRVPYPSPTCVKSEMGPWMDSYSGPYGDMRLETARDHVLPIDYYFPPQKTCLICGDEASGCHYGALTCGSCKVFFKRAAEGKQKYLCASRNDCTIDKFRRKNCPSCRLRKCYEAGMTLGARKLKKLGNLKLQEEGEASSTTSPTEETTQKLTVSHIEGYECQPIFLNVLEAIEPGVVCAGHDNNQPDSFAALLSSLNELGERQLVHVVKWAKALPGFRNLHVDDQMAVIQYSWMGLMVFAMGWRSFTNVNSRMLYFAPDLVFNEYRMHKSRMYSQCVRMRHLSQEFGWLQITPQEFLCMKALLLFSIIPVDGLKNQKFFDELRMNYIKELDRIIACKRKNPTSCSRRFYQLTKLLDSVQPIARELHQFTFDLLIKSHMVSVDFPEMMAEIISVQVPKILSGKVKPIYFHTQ
The experiment is described as follows: co-transfection assay, hAR in CV-1 cells (MTV-LUC reporter). The format is cell-based.
Source text: The co-transfection assay provides a method for identifying functional agonists and partial agonists that mimic, or antagonists that inhibit, the effect of native hormones and quantifying their activity for responsive IR proteins. In this regard, the co-transfection assay mimics an in vivo system in the laboratory. Importantly, activity in the co-transfection assay correlates very well with known in vivo activity, such that the co-transfection assay functions as a qualitative and quantitative predictor of a tested compounds in vivo pharmacology. , See e.g., T. Berger et al. 41 J. Steroid Biochem. Molec.
as §1
The reporter plasmid, MTV-LUC, contains the cDNA for firefly luciferase (LUC) under control of the mouse mammary tumor virus (MTV) long terminal repeat, a conditional promoter containing an androgen response element. See e.g., Berger et al. supra. In addition, pRS-β-Gal, coding for constitutive expression of E. coli β-galactosidase (β-Gal), was included as an internal control for evaluation of transfection efficiency and compound toxicity.
as §2, §3

The mark [3] stands for this setting: agonist mode, luciferase production relative to DHT, hAR in CV-1 cells.
Setting [4] is: antagonist mode, maximal inhibition of DHT-induced luciferase production, hAR in CV-1 cells.
[5] abbreviates: read-out: AR-wt Potency Antag, antagonist mode, Table 2.

Read-outs that look alike come from different tables or passages of the source.

In the case of `C=CCN1c2ccc3[nH]c(=O)cc(C(F)(F)F)c3c2OC[C@H]1CC` [Compound 114, (3R)-4-Allyl-3-ethyl-2,3,4,7-tetrahydro-10-(trifluoromethyl)-8H-[1,4]oxazino[2,3-f]quinolin-8-one], the IC50 was 5900 nM in experiment [1] and > 10000 nM in experiment [2] (setting [5]). The molecule further gave an EC50 in experiment [2] of 53 nM. Further, the “AR Agonist CV-1 Cells Efficacy” value in experiment [2] (setting [3]) was found to be 74%. In experiment [2] (setting [4]), the “AR Antagonist CV-1 Cells Efficacy” value is “na (not active (i.e. efficacy of <20 and potency of >10,000 nM for the cotransfection assay)”.
Turning to `CC(C)[C@@H]1COc2c(ccc3[nH]c(=O)cc(C(F)(F)F)c23)N1CC(F)(F)Cl` [Compound 124, (3R)-4-(2-Chloro-2,2-difluoroethyl)-2,3,4,7-tetrahydro-3-isopropyl-10-(trifluoromethyl)-8H-[1,4]oxazino[2,3-f]quinolin-8-one], the IC50 is 2400 nM in experiment [1] and > 10000 nM in experiment [2] (setting [5]). Further, a half-maximal response in experiment [2] (EC50) required 2 nM. For the same molecule, in experiment [2] (setting [3]), the “AR Agonist CV-1 Cells Efficacy” value is given as 70%. Moreover, in experiment [2] (setting [4]), the “AR Antagonist CV-1 Cells Efficacy” value was “na (not active (i.e. efficacy of <20 and potency of >10,000 nM for the cotransfection assay)”.
Regarding `CC[C@@H]1COc2c(ccc3[nH]c(=O)cc(C(F)(F)F)c23)N1CC(F)(F)F` [Compound 110, (3R)-3-Ethyl-2,3,4,7-tetrahydro-4-(2,2,2-trifluoroethyl)-10-(trifluoromethyl)-8H-[1,4]oxazino[2,3-f]quinolin-8-one], in experiment [2], the “AR Agonist CV-1 Cells Efficacy” value is listed as 89%; the “AR Antagonist CV-1 Cells Efficacy” value is “na (key: na: not active (i.e. efficacy of <20 and potency of >10,000 nM for the cotransfection assay)”; it took 0.6 nM to reach a half-maximal effect (EC50); the IC50 was > 10000 nM. Also, in experiment [2] (read-out: AR-wt Potency Antag), the IC50 was > 10000 nM.

As usually defined, the EC50 is the concentration giving half of the maximal effect. A higher EC50 goes with lower potency in that assay.
